# Legend:
# [1] = test system: AlCl3-induced AD rat model; assay: Morris water maze (MWM) test in AlCl3-induced AD rats; type: in vivo; details: mean ± SE, n = 6
# Procedure: (§1) All procedures were conducted conforming to the applicable National Institutes of Health standards and regulations for the Care and Use of Laboratory Animals. In this experiment, adult male Dawley rats in excellent condition weighing between 300 and 320 g were used. The animals were acquired from the Nile Company for Pharmaceuticals and Chemical Industries (Cairo, Egypt). They were placed in a controlled laboratory setting with unrestricted access to water, a temperature range of 24 to 26 °C, and 12 h a light–dark cycle. Three rats per cage were housed in polycarbonate cages that were individually packed with paper and encased with stainless steel wire.
# Spatial learning and memory were inspected using the MWM test. Tap water was poured into a 150 cm diameter by 60 cm high circular water tank until it reached a depth of 30 cm (25 ± 2 °C). To make the water […], non-toxic white dye was applied. The east, west, north, and south quadrants of the pool were essentially separated into four equal sections. At a specific spot in the middle of one quadrant, an escape platform with a diameter of 10 cm was submerged 2 cm below the water’s surface. The platform stood in the exact same quadrant throughout the testing. The rats’ swimming route was recorded by a video camera situated above the pool. From a designated spot in each quadrant, each rat was submerged in the water with its back turned to the pool wall, and it was then left to swim to the platform. The rats received training sessions every day for three days in a row, with four trials conducted in each session. Before the next trial began, the animals were kept a maximum of 60 s to explore the hidden platform. After that, they were permitted to relax on it for 20 s. The rat was positioned gently on the platform and allowed 20 s to rest if it took longer than 60 s to locate it. The time taken to find the platform, or the escape latency, was documented. In order to do a probing test on the fourth day, the platform was detached away, and the rats were given 60 s to swim liberally. The time spent in the assigned quadrant was counted.
# [2] = test system: AlCl3-induced AD rat model; assay: Y-maze SAP test in AlCl3-induced AD rats; type: in vivo; details: mean ± SE, n = 6
# Procedure: as §1
# One kind of short-term memory that SAP can represent is spatial working memory. Three arms, designated A, B, or C, were employed in a black hardwood Y-maze with a symmetrical triangular core space. Rats were briefly positioned at the edge of one arm and given 8 min to freely navigate around the maze. When the rat’s rear paws were fully inside the arm, the entries were counted. The following formula was used to determine SAP based on the total number of arm entries and alternations: SAP (%) = [number of alternations/(total arm entries − 2)] × 100 [94].
structure (smiles),measurement,setting,value
"COc1cc2c(cc1OC)C(=O)C(CC1CCN(Cc3ccccc3)CC1)C2 (stereo not drawn) [Donepezil, reference compound]",Learning (s),[1]; escape latency,14.78 ± 0.83 ^ab s
same,Memory (s),[1]; time spent in target quadrant,42.67 ± 0.61 ^ab s
same,SAP%,[2],85 ± 0.58 ^ab %

# Reference: paper PMC12389534, “Unlocking Therapeutic Potential of Novel Thieno-Oxazepine Hybrids as Multi-Target Inhibitors of AChE/BChE and Evaluation Against Alzheimer’s Disease: In Vivo, In Vitro, Histopathological, and Docking Studies” (Pharmaceuticals, 2025)
